Laboratory results from US6692757B1, “Multi-component, safe biocidal complex” (Board of Supervisors of Louisiana State University and …, priority 1999, dated 2004).

Assays:
[1] = system: bacteria endogenous to the city water system (biofilm on glass beads); assay: Biofilm-contaminated glass beads column: organisms released in effluent; assay type: cell-based; set-up: key: −: No significant reduction in number of organisms.; +/−: A small or transient reduction in number of organisms.; +: A significant reduction in number of organisms.; +++: A reduction to below 10 organisms per ml effluent; settings: hydrogen peroxide 3% v/v, NaHSO4 0.06% w/v, thymol >0.1% w/v, iron chip, treated four days, 12 h static
Experimental: The beads were first contaminated with bacteria endogenous to the city water system for five days.
0.06% w/v; and thymol, >0.1% w/v. Additionally, an iron chip was added to the Biocidal Complex.
Glass beads with an established biofilm were treated, and samples collected and analyzed, as described above.

[2] = system: Escherichia coli on chicken skin; assay: MIC on inoculated chicken skin, E. coli; assay type: cell-based, Escherichia coli B; settings: single agent; chicken skin immersed 10 min at 20° C.; concentration reducing final count below 17.5 cfu/cm^2
Experimental: To test the effectiveness of Biocidal Complex on other surfaces, a 5.7 cm^2 piece of chicken leg skin was placed in a holder made from a bottomless 50 ml centrifuge tube with a cap to support the skin test strip. Each skin sample was initially immersed in water. […] The bacteria were counted as described below. This value served as the control. The skin was then exposed to germicidal ultraviolet light for 5 min to sanitize the skin prior to inoculation. The sanitized skin was inoculated with 1 ml of a cell suspension containing 10^8 cfu/ml of either Salmonella typhimurium or Escherichia coli B and incubated for 30 min at 37° C. and 32° C., respectively. The inoculated skin samples were immersed in Biocidal Complex or in other combinations of ingredients at 20° C. for 10 min. […] The cotton swabs from both the control and treated skin were vortex-mixed for 1 min in a 0.1% peptone solution (pH 7.2). Then 0.5 ml of peptone solution was plated on MacConkey agar (Difco Laboratory, Detroit, Michigan). The plates were incubated for 24 hr at either 37° C. or 32° C. before counting the colonies. Microbial counts were expressed as cfu/cm^2, based on a total skin sample area of 5.7 cm^2. An initial level of contamination before treatment with Biocidal Complex (or water) was assessed for each sample. […] Initial contamination level of the inoculated skin after 30 min incubation time and immediately prior to treatment was 140,000 cfu/cm^2.

[3] = system: Salmonella typhimurium on chicken skin; assay: MIC on inoculated chicken skin, S. typhimurium; assay type: cell-based; settings: single agent; chicken skin immersed 10 min at 20° C.; concentration reducing final count below 17.5 cfu/cm^2
Experimental: To test the effectiveness of Biocidal Complex on other surfaces, a 5.7 cm^2 piece of chicken leg skin was placed in a holder made from a bottomless 50 ml centrifuge tube with a cap to support the skin test strip. Each skin sample was initially immersed in water. […] The bacteria were counted as described below. This value served as the control. The skin was then exposed to germicidal ultraviolet light for 5 min to sanitize the skin prior to inoculation. The sanitized skin was inoculated with 1 ml of a cell suspension containing 10^8 cfu/ml of either Salmonella typhimurium or Escherichia coli B and incubated for 30 min at 37° C. and 32° C., respectively. The inoculated skin samples were immersed in Biocidal Complex or in other combinations of ingredients at 20° C. for 10 min. […] The cotton swabs from both the control and treated skin were vortex-mixed for 1 min in a 0.1% peptone solution (pH 7.2). Then 0.5 ml of peptone solution was plated on MacConkey agar (Difco Laboratory, Detroit, Michigan). The plates were incubated for 24 hr at either 37° C. or 32° C. before counting the colonies. Microbial counts were expressed as cfu/cm^2, based on a total skin sample area of 5.7 cm^2. An initial level of contamination before treatment with Biocidal Complex (or water) was assessed for each sample. […] Contamination level of the inoculated skin after 30 min incubation time and immediately before treatment was 3,500,000 cfu/cm^2. The water-washed control skin ha 1,750 cfu/cm^2.

[4] = system: Escherichia coli in broth culture; assay: MIC in broth culture, E. coli; assay type: cell-based, Escherichia coli B; settings: single agent; nutrient broth, 24 hours at 32° C.; no detectable growth
Experimental: (§1) Nutrient broth was mixed with the complete Biocidal Complex or with combinations of ingredients, and then serially diluted two-fold in stages. Various combinations of biocidal ingredients and broth were inoculated with 0.1 ml of either Salmonella typhimurium or Escherichia coli B to give a microbial count of about 10^7 cfu/ml. Inoculated broth was then incubated for 24 hours at 37° C. for S. typhimurium, or at 32° C. for E. coli.

[5] = system: Salmonella typhimurium in broth culture; assay: MIC in broth culture, S. typhimurium; assay type: cell-based; settings: single agent; nutrient broth, 24 hours at 37° C.; no detectable growth
Experimental: as §1

Row | Structure (SMILES) | Effect: qualitative changes in number of organisms released from established biofilms [1] | MIC (%) [2] [%] | MIC (%) [3] [%] | MIC (%) [4] [%] | MIC (%) [5] [%]
1 | OO [H2O2, hydrogen peroxide] | − | 4.0 | 7.0 | 0.006 | 0.012
2 | OCl [Sodium Hypochlorite, sodium hypochlorite, reference compound] |  | 1.0 | 1.0 | 0.013 | 0.025
3 | Cc1ccc(C(C)C)c(O)c1 [Thymol, thymol] | +/− | >0.1 | >0.1 | 0.02 | 0.04
